{"source": "patent US11339171B2", "about": "“MDM2 inhibitors” (Gan & Lee Pharmaceuticals, priority 2017, dated 2022)", "key": {"[1]": {"test_system": "human osteosarcoma cell line SJSA-1", "test": "Inhibition of proliferation of human osteosarcoma cell line SJSA-1 (DAPI staining, In Cell Analyzer)", "settings": "Homo sapiens, SJSA-1, 72 h, read-out: IC50 (nM), inhibitory activity on proliferation of human osteosarcoma cell line SJSA-1, SJSA-1, incubated 72 h"}, "[2]": {"test": "Pharmacokinetics in ICR mice after intravenous and intragastric administration", "assay_type": "in vivo", "settings": "for MRT last: read-out: MRT(0-t); for MRT inf: read-out: MRT(0-∞); for Vd: read-out: Vz", "procedure,_shortened": "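Male ICR mice aged 6-9 weeks are dosed after an overnight fast, intravenously at 2 mg/kg and orally by gavage at 5 mg/kg. Plasma drug is measured by LC-MS/MS over a 1-2000 ng/ml range.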"}, "[3]": {"target": "T1, MDM2 (Homo sapiens, UniProt Q00987)", "T1 construct": "made in house", "T1 sequence (Q00987 whole entry)": "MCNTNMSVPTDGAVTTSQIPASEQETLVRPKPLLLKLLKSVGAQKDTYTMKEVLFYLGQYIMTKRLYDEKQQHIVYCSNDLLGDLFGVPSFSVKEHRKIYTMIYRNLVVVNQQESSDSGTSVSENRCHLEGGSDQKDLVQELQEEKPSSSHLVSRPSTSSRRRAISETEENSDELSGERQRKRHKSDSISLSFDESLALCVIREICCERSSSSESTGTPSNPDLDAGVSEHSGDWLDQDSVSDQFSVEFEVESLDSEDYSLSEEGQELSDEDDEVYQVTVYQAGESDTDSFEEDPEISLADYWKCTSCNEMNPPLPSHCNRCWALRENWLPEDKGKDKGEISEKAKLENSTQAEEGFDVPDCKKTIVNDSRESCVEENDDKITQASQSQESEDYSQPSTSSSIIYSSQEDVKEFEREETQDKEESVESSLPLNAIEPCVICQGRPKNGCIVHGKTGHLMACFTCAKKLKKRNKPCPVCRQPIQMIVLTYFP", "test": "Inhibition test of MDM2-P53 (GST-MDM2, Biotin-P53, Anti-GST-Tb, SA-XL665)", "assay_type": "binding", "procedure,_shortened": "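Compounds, serially diluted 5-fold (twelve concentrations), were shaken for 90 min at 25° C with a mix of GST-MDM2 (4 nM final), Biotin-P53, anti-GST-Tb and SA-XL665. Buffer: 1×PBS, 0.1% BSA, 5 mM DTT, 1 mM AEBSF; signal read on a microplate reader.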"}, "[4]": {"settings": "ICR mice, IV 2 mg/kg, individual animal, 2 mg/kg"}, "[5]": {"settings": "ICR mice, PO 5 mg/kg, individual animal, 5 mg/kg"}, "[6]": {"settings": "male, ICR, mouse, plasma, iv, 2 mg/kg, ICR mice, IV 2 mg/kg, individual animal"}, "[7]": {"settings": "male, ICR, mouse, plasma, iv, 2 mg/kg, ICR mice, IV 2 mg/kg, mean of 3 animals"}, "[8]": {"settings": "male, ICR, mouse, plasma, po, 5 mg/kg, ICR mice, PO 5 mg/kg, individual animal"}, "[9]": {"settings": "male, ICR, mouse, plasma, po, 5 mg/kg, ICR mice, PO 5 mg/kg, mean of 3 animals"}}, "note": "Values joined by “and” are separate entries in the source; they are usually repeats but may differ in a detail not shown here. Equal entries are not always repeated. Where two headings read alike, the source gives them in different places."}
{"smiles": "COc1cc(C(C)C)ccc1-c1nc2c(n1C(C)C)[C@@]1(C(=O)Nc3cc(Cl)ccc31)N(c1cc(Cl)ccc1C)C2=O", "note": "[Example S-32, (S)-6-chloro-5′-(5-chloro-2-methylphenyl)-3′-isopropyl-2′-(4-isopropyl-2-methoxyphenyl)-3′H-spiro[dihydroindole-3,4′-pyrrolo[3,4-d]imidazole]-2,6′(5′H)-dione]", "values": [{"measurement": "IC50", "setting": "[1]", "result": 10.1, "unit": "nM"}, {"measurement": "AUC(0-t)", "setting": "[2]; [4]", "result": "3859.04 ng·h/mL and 4699.29 ng·h/mL"}, {"measurement": "AUC(0-∞)", "setting": "[2]; [4]", "result": "4004.98 ng·h/mL and 4854.66 ng·h/mL"}, {"measurement": "CL", "setting": "[2]; [4]", "result": "8.323 mL/min/kg and 6.8663 mL/min/kg"}, {"measurement": "Cmax", "setting": "[2]; [4]", "result": "1902.13 ng/mL and 2766.01 ng/mL"}, {"measurement": "MRT(0-t)", "setting": "[2]; [4]", "result": "1.29 h and 1.32 h"}, {"measurement": "MRT(0-∞)", "setting": "[2]; [4]", "result": 1.53, "unit": "h"}, {"measurement": "Tmax", "setting": "[2]; [4]", "result": "0.50 h and 0.08 h and 0.25 h"}, {"measurement": "Vz", "setting": "[2]; [4]", "result": "0.90833 L/kg and 0.7302 L/kg"}, {"measurement": "t1/2", "setting": "[2]; [4]", "result": "1.26 h and 1.23 h"}, {"measurement": "AUC(0-t)", "setting": "[2]; [5]", "result": "10704.89 ng·h/mL and 8458.06 ng·h/mL"}, {"measurement": "AUC(0-∞)", "setting": "[2]; [5]", "result": "11027.74 ng·h/mL and 9168.53 ng·h/mL"}, {"measurement": "Cmax", "setting": "[2]; [5]", "result": "1578.70 ng/mL and 3356.31 ng/mL and 2518.33 ng/mL"}, {"measurement": "MRT(0-t)", "setting": "[2]; [5]", "result": "2.24 h and 2.48 h"}, {"measurement": "MRT(0-∞)", "setting": "[2]; [5]", "result": "2.48 h and 3.14 h"}, {"measurement": "t1/2", "setting": "[2]; [5]", "result": "1.51 h and 2.07 h"}, {"measurement": "AUC(0-inf)", "setting": "[2]; [6]", "result": 7630, "unit": "ng·h/mL"}, {"measurement": "clearance", "setting": "[2]; [6]", "result": 4.37, "unit": "mL/min/kg"}, {"measurement": "AUC(0-t)", "setting": "[2]; male, ICR, mouse, plasma, iv, 2 mg/kg, ICR mice, IV 2 mg/kg, individual animal, read-out: AUC(0-t)", "result": 7200, "unit": "ng·h/mL"}, {"measurement": "Cmax", "setting": "[2]; male, ICR, mouse, plasma, iv, 2 mg/kg, ICR mice, IV 2 mg/kg, individual animal, read-out: Cmax", "result": 2450, "unit": "ng/mL"}, {"measurement": "MRT last", "setting": "[2]; [6]", "result": 1.61, "unit": "h"}, {"measurement": "MRT inf", "setting": "[2]; [6]", "result": 1.97, "unit": "h"}, {"measurement": "Vd", "setting": "[2]; [6]", "result": 0.543, "unit": "L/kg"}, {"measurement": "half-life", "setting": "[2]; male, ICR, mouse, plasma, iv, 2 mg/kg, ICR mice, IV 2 mg/kg, individual animal, read-out: t1/2 (converted)", "result": 1.44, "unit": "h"}, {"measurement": "AUC(0-inf)", "setting": "[2]; [7]", "result": 5500, "unit": "ng·h/mL"}, {"measurement": "clearance", "setting": "[2]; [7]", "result": 6.52, "unit": "mL/min/kg"}, {"measurement": "AUC(0-t)", "setting": "[2]; male, ICR, mouse, plasma, iv, 2 mg/kg, ICR mice, IV 2 mg/kg, mean of 3 animals, read-out: AUC(0-t)", "result": 5250, "unit": "ng·h/mL"}, {"measurement": "Cmax", "setting": "[2]; male, ICR, mouse, plasma, iv, 2 mg/kg, ICR mice, IV 2 mg/kg, mean of 3 animals, read-out: Cmax", "result": 2370, "unit": "ng/mL"}, {"measurement": "MRT last", "setting": "[2]; [7]", "result": 1.41, "unit": "h"}, {"measurement": "MRT inf", "setting": "[2]; [7]", "result": 1.68, "unit": "h"}, {"measurement": "Tmax", "setting": "[2]; male, ICR, mouse, plasma, iv, 2 mg/kg, ICR mice, IV 2 mg/kg, mean of 3 animals, read-out: Tmax", "result": 0.278, "unit": "h"}, {"measurement": "Vd", "setting": "[2]; [7]", "result": 0.727, "unit": "L/kg"}, {"measurement": "half-life", "setting": "[2]; male, ICR, mouse, plasma, iv, 2 mg/kg, ICR mice, IV 2 mg/kg, mean of 3 animals, read-out: t1/2 (converted)", "result": 1.31, "unit": "h"}, {"measurement": "AUC(0-inf)", "setting": "[2]; [8]", "result": 7100, "unit": "ng·h/mL"}, {"measurement": "AUC(0-t)", "setting": "[2]; male, ICR, mouse, plasma, po, 5 mg/kg, ICR mice, PO 5 mg/kg, individual animal, read-out: AUC(0-t)", "result": 6020, "unit": "ng·h/mL"}, {"measurement": "MRT last", "setting": "[2]; [8]", "result": 2.79, "unit": "h"}, {"measurement": "MRT inf", "setting": "[2]; [8]", "result": 4.22, "unit": "h"}, {"measurement": "Tmax", "setting": "[2]; male, ICR, mouse, plasma, po, 5 mg/kg, ICR mice, PO 5 mg/kg, individual animal, read-out: Tmax", "result": 1, "unit": "h"}, {"measurement": "half-life", "setting": "[2]; male, ICR, mouse, plasma, po, 5 mg/kg, ICR mice, PO 5 mg/kg, individual animal, read-out: t1/2 (converted)", "result": 2.89, "unit": "h"}, {"measurement": "AUC(0-inf)", "setting": "[2]; [9]", "result": 9100, "unit": "ng·h/mL"}, {"measurement": "AUC(0-t)", "setting": "[2]; male, ICR, mouse, plasma, po, 5 mg/kg, ICR mice, PO 5 mg/kg, mean of 3 animals, read-out: AUC(0-t)", "result": 8390, "unit": "ng·h/mL"}, {"measurement": "Cmax", "setting": "[2]; male, ICR, mouse, plasma, po, 5 mg/kg, ICR mice, PO 5 mg/kg, mean of 3 animals, read-out: Cmax", "result": 2480, "unit": "ng/mL"}, {"measurement": "MRT last", "setting": "[2]; [9]", "result": 2.5, "unit": "h"}, {"measurement": "MRT inf", "setting": "[2]; [9]", "result": 3.28, "unit": "h"}, {"measurement": "Tmax", "setting": "[2]; male, ICR, mouse, plasma, po, 5 mg/kg, ICR mice, PO 5 mg/kg, mean of 3 animals, read-out: Tmax", "result": 1, "unit": "h"}, {"measurement": "half-life", "setting": "[2]; male, ICR, mouse, plasma, po, 5 mg/kg, ICR mice, PO 5 mg/kg, mean of 3 animals, read-out: t1/2 (converted)", "result": 2.16, "unit": "h"}, {"measurement": "AUC(0-t)", "setting": "[2]; male, ICR, mouse, plasma, po, 5 mg/kg, oral intragastric administration 5 mg/kg, read-out: AUC0-t", "result": 8390, "unit": "ng·h/mL"}, {"measurement": "half-life", "setting": "[2]; male, ICR, mouse, plasma, po, 5 mg/kg, oral intragastric administration 5 mg/kg, read-out: half-life (converted)", "result": 2.16, "unit": "h"}, {"measurement": "bioavailability", "setting": "[2]; male, mouse, plasma, ICR mice, PO 5 mg/kg vs IV 2 mg/kg, from mean values, read-out: F* (bioavailability)", "result": 63.9, "unit": "%"}, {"measurement": "IC50", "setting": "[3]", "result": 3.89, "unit": "nM"}]}
